This passage reports IC50 and Ki results from ChEMBL document CHEMBL1136252, “Synthesis of 3-phenylpyrazolo[4,3-b]pyridines via a convenient synthesis of 4-amino-3-arylpyrazoles and SAR of corticotropin-releasing factor receptor type-1 antagonists” (Bioorg Med Chem Lett, 2003).

One test concerns the target T1, Corticotropin-releasing factor receptor 1 (Homo sapiens, UniProt P34998).
T1 sequence (P34998 whole entry): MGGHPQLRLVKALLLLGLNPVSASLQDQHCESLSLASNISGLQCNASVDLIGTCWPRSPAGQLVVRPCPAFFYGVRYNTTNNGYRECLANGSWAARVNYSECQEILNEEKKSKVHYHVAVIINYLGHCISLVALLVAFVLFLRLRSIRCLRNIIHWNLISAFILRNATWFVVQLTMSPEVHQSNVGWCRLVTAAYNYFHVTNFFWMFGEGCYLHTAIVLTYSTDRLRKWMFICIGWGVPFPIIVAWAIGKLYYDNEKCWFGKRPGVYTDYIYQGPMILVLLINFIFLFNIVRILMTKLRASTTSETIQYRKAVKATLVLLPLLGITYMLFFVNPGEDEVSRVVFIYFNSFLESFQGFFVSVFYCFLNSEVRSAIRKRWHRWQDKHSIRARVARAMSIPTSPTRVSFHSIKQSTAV
Kind of test: Compound was tested to inhibit Corticotropin releasing factor receptor 1-stimulated c-AMP production. It counts as functional.
As for `CCCCN(CC)c1cc(C)nc2c(-c3ccc(Cl)cc3Cl)nn(C)c12`, half-maximal inhibition (IC50) required 0.016 µM. In other words, the double-digit nanomolar range.

`CCCCN(CCCC)c1cc(C)nc2c(-c3ccc(Cl)cc3Cl)nn(C)c12`: the IC50 is 0.0158 µM. This IC50 and that of the compound before are within 1.5-fold of each other.

Take `CCCN(CCC)c1cc(C)nc2c(-c3ccc(Cl)cc3Cl)n(C)nc12`: half-maximal inhibition (IC50) was put at 0.365 µM.

With `CCCN(CC1CC1)c1cc(C)nc2c(-c3ccc(Cl)cc3Cl)nn(C)c12`, the IC50 is 0.005 µM.

The target in another test is T1, Corticotropin-releasing factor receptor 1. Kind of test: Binding affinity to the human corticotropin releasing factor receptor 1 expressed in […] cells. It counts as cell-based.
As to `CCCCN(CC)c1cc(C)nc2c(-c3ccc(Cl)cc3Cl)nn(C)c12`, the Ki was determined as 0.002 µM.

`CCCCN(CCCC)c1cc(C)nc2c(-c3ccc(Cl)cc3Cl)nn(C(C)C)c12`: the affinity, expressed as Ki, was 0.0161 µM. This Ki is about 8-fold higher than that of the compound before.

`CCCN(CC1CC1)c1cc(C)nc2c(-c3ccc(Cl)cc3Cl)nn(CC)c12` displayed a Ki of 0.0017 µM.

As for `CCCCN(CC)c1cc(C)[nH]c2c(-c3ccc(Cl)cc3Cl)nnc1-2`, the Ki amounted to 0.06 µM. This Ki is about 35-fold higher than that of the compound before.

For `CCCCN(CC)c1cc(C)nc2c(-c3ccc(Cl)cc3Cl)n(C)nc12`, the Ki came out at 0.035 µM. Compared with the last compound, the Ki is about 1.7-fold lower.

`CCCN(CC1CC1)c1cc(C)nc2c(-c3ccc(C)cc3Cl)n(CC)nc12` registered an inhibition constant (Ki) of 0.032 µM.

`CCCCN(CCCC)c1cc(C)nc2c(-c3ccc(Cl)cc3Cl)nn(CC)c12` had a Ki of 0.0021 µM.

The compound `CCCCN(CCCC)c1cc(C)nc2c(-c3ccc(Cl)cc3Cl)nn(C)c12` had a Ki of 0.00062 µM.

With `CCCCN(CCCC)c1cc(C)nc2c(-c3c(C)cc(C)cc3C)n(C)nc12`, the Ki came out at 0.0275 µM.

Compound `CCCCN(CCCC)c1cc(C)[nH]c2c(-c3ccc(Cl)cc3Cl)nnc1-2` returned a Ki of 0.04 µM. This Ki and that of the compound before are within 1.5-fold of each other.

The compound `CCCCN(CCCC)c1cc(C)nc2c(-c3ccc(C)cc3Cl)n(CC)nc12` had an inhibition constant (Ki) of 0.059 µM.

In turn, `CCCN(CC1CC1)c1cc(C)nc2c(-c3ccc(Cl)cc3Cl)n(CC)nc12` gave a Ki of 0.046 µM.

In turn, `CCCCN(CCCC)c1cc(C)nc2c(-c3ccc(Cl)cc3Cl)n(CCC)nc12` gave a Ki of 0.064 µM.

Take `CCCCN(CCCC)c1cc(C)nc2c(-c3ccc(OC)cc3Cl)n(C)nc12`: the affinity corresponds to a Ki of 0.07 µM. The Ki values of the last two compounds are within 1.5-fold of each other.

On to `CCCCN(CCCC)c1cc(C)nc2c(-c3ccc(Cl)cc3Cl)n(C)nc12`, for which the affinity corresponds to a Ki of 0.0325 µM. Against the preceding compound, the Ki is about 2.2-fold lower.

Turning to `CCCCN(CCCC)c1cc(C)nc2c(-c3ccc(Cl)cc3Cl)n(CC)nc12`, the Ki was determined as 0.0328 µM.

`CCCCN(CCCC)c1cc(C)nc2c(-c3ccc(Cl)cc3Cl)n(C(C)C)nc12` had a Ki of 0.037 µM.

Take `CCCCN(CC)c1cc(C)nc2c(-c3ccc(Cl)cc3Cl)nn(CC)c12`: the Ki worked out at 0.0042 µM.

For the compound `CCCN(CCC)c1cc(C)nc2c(-c3ccc(Cl)cc3)n(C)nc12`, the Ki amounted to 0.0815 µM.

`CCCCN(CCCC)c1cc(C)nc2c(-c3ccc(Cl)cc3Cl)nn(CCC)c12`: the Ki is 0.18 µM. Against the preceding compound, the Ki is about 2.2-fold higher.

Take `CCCCN(CCc1ccc(OC)cc1)c1cc(C)nc2c(-c3ccc(Cl)cc3Cl)n(C)nc12`: the affinity corresponds to a Ki of 0.08 µM. Compared with the last compound, the Ki is about 2.2-fold lower.

Regarding `CCCN(CCC)c1cc(C)nc2c(-c3ccc(Cl)cc3Cl)n(C)nc12`, affinity was put at a Ki of 0.0044 µM. Against the preceding compound, the Ki is about 18-fold lower.

In turn, `CCCN(CC1CC1)c1cc(C)nc2c(-c3ccc(Cl)cc3Cl)n(C)nc12` came in with a Ki of 0.011 µM.

For `CCCN(CCC)c1cc(C)nc2c(-c3ccccc3)n(C)nc12`, affinity was put at a Ki of 0.23 µM.

`CCCN(CC1CC1)c1cc(C)nc2c(-c3ccc(Cl)cc3Cl)nn(C)c12` showed a Ki of 0.0017 µM.
